Laboratory results from patent publication US11883194B2, “Method and system for measuring, predicting, and optimizing human cognitive performance” (priority 2015, dated 2024).

Assay: caffeine effect (gPD) parameters of the alertness model for PVT performance
Type: in vivo, human
Conditions: beginning model parameter value (standard error)
Source text: In at least one embodiment, the model is as follows: Pc(t)=(S(t)+κC(t))*gPD(t,c) (1) where C and S denote the circadian and homeostatic processes of the two-process model at time t, respectively, and κ represents the circadian amplitude.
M0, k0, z, and ka denote an amplitude slope, a basal elimination rate, a decay constant, and an absorption rate, respectively.

Compound: Cn1c(=O)c2c(ncn2C)n(C)c1=O [caffeine]
- M0 (amplitude slope) (PVT lapse statistic): 9.86 (1.80) g^−1
- Z (decay constant) (PVT lapse statistic): 1.63 (1.61) g^−1
- k0 (basal elimination rate) (PVT lapse statistic): 0.49 (0.17) h^−1
- M0 (amplitude slope) (PVT mean RT statistic): 3.59 (0.66) g^−1
- Z (decay constant) (PVT mean RT statistic): 1.63 (1.61) g^−1
- k0 (basal elimination rate) (PVT mean RT statistic): 0.49 (0.17) h^−1
- ka (capsule) (absorption rate) (PVT lapse statistic): 2.06 (0.36) h^−1
- ka (capsule) (absorption rate) (PVT mean RT statistic): 2.06 (0.36) h^−1
